Target: T1, SOD1^A4V (Homo sapiens, UniProt P00441, A5V)
T1 construct: The full-length constructs of SOD1-wild type (aa: 1–145) and its corresponding SOD1 disease mutant, SOD1^A4V; His-tag (cleaved yes); made in house; host or cells: E. coli BL21 DE3
Experiment: Analytical size-exclusion chromatography (SEC) aggregation assay, SOD1^A4V
Assay type: biochemical
Method: Fig 6 Aggregation studies of metallated and reduced SOD1^WT and SOD1^A4V on treatment with PB. ThT fluorescence was monitored during the co-incubation of metallated SOD1^WT (50 μM) (a) or SOD1^A4V (50 μM) (b) with PB at 1:30 molar ratio at 37 °C with continuous shaking, under reduced conditions. The values were normalized to the maximal ThT intensity elicited by SOD1^WT or SOD1^A4V and fitted to a Boltzmann sigmoidal equation. The control and PB-treated species were compared to analyse the effects of PB on the aggregation of SOD1^WT and SOD1^A4V. Error bars indicate the standard deviation. Analytical SEC of metallated SOD1^WT (50 μM) (c) and SOD1^A4V (50 μM) (d) with PB were analyzed under reducing conditions before and after 24 hrs and 48 hrs incubation at 37 °C. The first peak eluting at the volume was denoted as oligomerized SOD1^WT/SOD1^A4V (L). The second, third, and fourth peaks were calculated as trimer (T), dimer (D), and monomer (M) species of SOD1^WT/SOD1^A4V running at 14.5 ml, 15.7 ml, and 16.5 ml, respectively. […]
Fig 7 Aggregation studies of de-metallated and reduced SOD1^WT and SOD1^A4V on treatment with PB. ThT fluorescence was monitored during the co-incubation of de-metallated SOD1^WT (50 μM) (a) or SOD1^A4V (50 μM) (b) with PB at 1:30 molar ratio at 37 °C with continuous shaking, under reduced conditions. […] Analytical SEC of de-metallated SOD1^WT (50 μM) (a) and SOD1^A4V (50 μM) (b) with PB were analysed under reducing conditions before and after 24 hrs and 48 hrs incubation at 37 °C. […] The second, third, and fourth peaks were calculated as trimer (T), dimer (D), and monomer (M) species of SOD1^WT/SOD1^A4V running at 14.5 ml, 15.7 ml, and 16.5 ml, respectively. […]
The anti-aggregation activity of PB was validated on the SOD1^WT and the disease mutant (SOD1^A4V) through size exclusion chromatography. The analytical size-exclusion chromatography is a gold standard method for comprehensively evaluating protein species through their molecular weight variations detected by the protein peaks’ elution volume (Ve). […]

T1 sequence (P00441 whole entry A5V): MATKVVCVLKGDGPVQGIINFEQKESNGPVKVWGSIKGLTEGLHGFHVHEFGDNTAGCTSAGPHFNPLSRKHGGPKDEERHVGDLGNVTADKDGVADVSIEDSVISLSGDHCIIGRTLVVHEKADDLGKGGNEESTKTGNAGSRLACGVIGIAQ

trimer population (SEC) (De-metallated (EDTA) SOD1^A4V 50 μM, PB 30X, reducing conditions): reduces the trimer population
SMILES: CCCC[C@H](C)/C=C(C)/C=C/C(=O)O [PB, (S, 2E, 4E)-4,6-dimethyldeca-2,4-dienoic acid]
trimer populations (SEC) (Metallated SOD1^A4V 50 μM, PB 60X, reducing conditions): trimer populations were significantly reduced
formation of toxic trimer species (SEC) (Metallated SOD1^A4V 50 μM, PB at a ratio of 1:30, reducing conditions): visibly reduced the formation of toxic trimer species
